The values below come from patent US11058686B2, “5-(pyrimidin-4-yl)-2-(pyrrolidin-1-yl)nicotinonitrile compounds as IKKE, TBK1 and/or SIK2 kinases inhibitors” (DOMAINEX LIMITED, priority 2017, dated 2021).

Series [1] is described as follows: Human hepatocyte (liver cell) stability. It is filed as in vitro ADME. The conditions noted are these: intrinsic clearance, cryopreserved pooled human hepatocytes, 3 μM compound, 0-60 min; for Human hepatocyte stability (μL/min/10^6 cells): Table 4; for Human Heps (μL/min/10^6 cells): Table 5, comparative examples. As to the method: Commercially available cryopreserved pooled human hepatocytes were purchased and stored in liquid nitrogen prior to use. Williams E media supplemented with 2 mM L-glutamine and 25 mM HEPES and the appropriate test compound (final substrate concentration 3 μM; final DMSO concentration 0.25%) were pre-incubated at 37° C. prior to the addition of a suspension of cryopreserved human hepatocytes (final cell density 0.5×10^6 viable cells/mL in Williams E media supplemented with 2 mM L-glutamine and 25 mM HEPES) to initiate the reaction. The final incubation volume is 500 μL. Two control compounds were included in each test alongside the vehicle control, typically verapamil and umbelliferone.
The reactions were stopped after 0 min, 5 min, 20 min, 40 min and 60 min by transferring 50 μL of the incubate to 100 μL methanol containing an internal standard. The termination plates were subsequently centrifuged at 2500 rpm at 4° C. to precipitate the protein. Following protein precipitation the sample supernatants are combined in cassettes of up to 4 compounds and analysed by LC-MS/MS conditions.
The In peak area ratio (compound peak area/internal standard peak area) was plotted against time and the gradient of the line determined. Elimination rate constant (k)=−(gradient) Half life(t1/2)(min)=0.693/k V(μL/10^6 cells)=Incubation volume (μL)/number of cells in incubation (×10^6) Intrinsic Clearance(Clint)(μL/min/million cells)=V×0.693/t1/2
If the two control compounds are not within historical specified limits then the results are rejected and the experiment repeated.

A further series has as its target T1, TBK1 (Homo sapiens, UniProt Q9UHD2).
T1 sequence (Q9UHD2 1-729): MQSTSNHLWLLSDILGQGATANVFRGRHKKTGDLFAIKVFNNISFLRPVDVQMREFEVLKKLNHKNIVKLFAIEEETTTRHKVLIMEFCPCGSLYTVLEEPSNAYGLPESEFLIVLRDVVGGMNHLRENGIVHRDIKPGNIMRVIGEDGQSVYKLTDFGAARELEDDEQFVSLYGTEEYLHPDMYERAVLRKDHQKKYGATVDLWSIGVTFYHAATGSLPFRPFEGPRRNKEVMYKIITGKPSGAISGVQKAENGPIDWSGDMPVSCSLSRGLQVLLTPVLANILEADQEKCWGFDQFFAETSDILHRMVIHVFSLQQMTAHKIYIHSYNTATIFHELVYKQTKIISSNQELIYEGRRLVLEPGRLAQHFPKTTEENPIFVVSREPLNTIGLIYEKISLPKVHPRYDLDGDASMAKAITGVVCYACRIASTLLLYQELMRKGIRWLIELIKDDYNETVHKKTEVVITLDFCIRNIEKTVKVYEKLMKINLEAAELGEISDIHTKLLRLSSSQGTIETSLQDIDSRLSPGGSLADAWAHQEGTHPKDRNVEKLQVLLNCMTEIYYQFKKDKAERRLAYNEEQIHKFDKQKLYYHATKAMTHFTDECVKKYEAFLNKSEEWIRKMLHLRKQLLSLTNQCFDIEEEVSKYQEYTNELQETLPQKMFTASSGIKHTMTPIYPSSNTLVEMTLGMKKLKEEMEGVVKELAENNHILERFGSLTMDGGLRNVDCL
As to the kind of experiment: TBK1 enzyme potency, time-resolved fluorescence Lanthascreen kinase assay. It is filed as biochemical. The conditions noted are these: IC50 at apparent Km for ATP (20 μM), 2.5 h reaction; read-out: Inhibition of TBK1. The protocol:
(§1) Compounds of the invention (synthesised as described above), and Comparative Examples 1 to 5 (which may be synthesised as described in WO 2014/128486), were tested for potency against the IKKε and TBK1 enzyme as follows:
(§2) Inhibition studies were performed using a time-resolved fluorescence-based Lanthascreen™ assay. Phosphorylation of a fluorescein-labelled substrate peptide is measured using terbium-labeled phosphospecific antibodies. Terbium is excited at 340 nm and the FRET energy transfer to fluorescein is measured at 495 and 520 nm. The emission ratio between 520 and 495 is a measure of the level of phosphorylation of the substrate by the kinase.
(§3) Kinase inhibition assays (5 μL) were performed at 20° C. in 384-well plate format. Compound IC50 values were determined at the apparent Km for ATP (20 μM) based on a […] assay (Invitrogen) using 8 or 10 point curves in duplicate. The final reaction conditions contained 380 nM fluorescein-IkBα substrate (DRHDSGLDSMKDE) [SEQ ID No 1], 20 μM ATP, 0.9-3 nM IKKε or or 6-8 nM TBK1 kinase respectively, and 1% DMSO in kinase assay buffer consisting of 50 mM HEPES (pH 7.5), 10 mM MgCl2, 1 mM EGTA, 0.05% Brij-35.
(§4) Compound dilutions were prepared from 10 mM DMSO stocks by dilution into DMSO. Compound dilution series were further diluted in kinase assay buffer to give a 5% DMSO stock, the final concentration in the assay being 1% DMSO.
(§5) The kinase phosphorylation assay was initiated by the addition of the kinase and the reaction was allowed to proceed for 1 h or 2.5 h for IKKε and TBK1 kinase respectively. Both conditions were within the linearity of the phosphorylation. The reaction was stopped by the addition of 10 mM EDTA, and phosphorylation was detected after a 1 hour incubation with 1.5 nM terbium-labelled antibody against phosphorylation at Serine 32 on the IkBα peptide, both in TR-FRET dilution buffer (Invitrogen).
A general note: Time-resolved FRET reads energy transfer from a long-lived donor to a nearby acceptor.

The nature of series [2]: Pharmacokinetic evaluation in female Balb-C mice after intravenous administration. It is filed as in vivo. The conditions noted are these: for Vd: Vd at steady state; for t½ / half-life: terminal half life in plasma (estimated); for half-life: read-out: t½ (converted). As to the method: Pharmacokinetic evaluation was performed in female Balb-C mice. For intravenous administration (IV) compounds were typically dosed at 0.5 mg/Kg in a dose volume of 5 mL/Kg via the tail vein. Compounds were typically dosed in a vehicle of 5% DMSO/95% (Kelptose 20% w/v in phosphate buffered saline (PBS) pH 7.4). Other dosing vehicles known to those skilled in the art can also be used.
Blood samples were taken by cardiac puncture under terminal anaesthesia (isoflurane) at 8 time points between 1 minute and 10 hours following IV administration, typically 1 min, 5 min, 15 min, 30 min, 1 h, 3 h, 6 h and 10 h post dosing. In some instances 2 h, 4 h and 8 h were used for the final 3 time points due to greater convenience. N=3 animals were used per time point. Plasma was immediately obtained by centrifugation, and the resulting samples frozen until analysis. Samples, along with a calibration curve prepared by spiking the compounds into control plasma, were subsequently prepared for quantitative analysis by precipitation of the plasma proteins with acetonitrile. Analysis was by ultra-high performance liquid chromatography (Agilent 1290 system) coupled to time-of-flight mass spectrometry, using electrospray ionisation (Agilent 6550 system). Pharmacokinetic parameters were determined by non-compartmental analysis of mean concentration data using Phoenix WinNonlin v6.4
The volume of distribution (Vd) is the theoretical volume into which a drug appears to be distributed assuming it is present at the same concentration everywhere as it is in plasma.
The Vd at steady state (Vdss) is calculated by multiplying the clearance (Cl) by the mean residence time (MRT). Clearance is measured by dividing the dose by the Area under the concentration time curve. Cl=Dose/AUC0-∞ Vdss=Cl×MRT
The mean residence time is calculated by dividing the area under the second moment curve (AUMC) by the area under the concentration time curve (AUC). The second moment curve can be generated by plotting […] MRT=AUMC/AUC (ii) t1/2 in Mice (Estimated)
The compound half life (t1/2) is the time for the concentration of the drug to halve in the plasma. The terminal half life was typically estimated from the gradient of a log concentration/time plot using the last 3 points. Both the Cl and the Vd contribute to the observed half life. A larger Vd and smaller Cl gives a longer t1/2.

The next series deals with T2, IKKε (Homo sapiens, UniProt Q14164).
T2 sequence (Q14164 1-716): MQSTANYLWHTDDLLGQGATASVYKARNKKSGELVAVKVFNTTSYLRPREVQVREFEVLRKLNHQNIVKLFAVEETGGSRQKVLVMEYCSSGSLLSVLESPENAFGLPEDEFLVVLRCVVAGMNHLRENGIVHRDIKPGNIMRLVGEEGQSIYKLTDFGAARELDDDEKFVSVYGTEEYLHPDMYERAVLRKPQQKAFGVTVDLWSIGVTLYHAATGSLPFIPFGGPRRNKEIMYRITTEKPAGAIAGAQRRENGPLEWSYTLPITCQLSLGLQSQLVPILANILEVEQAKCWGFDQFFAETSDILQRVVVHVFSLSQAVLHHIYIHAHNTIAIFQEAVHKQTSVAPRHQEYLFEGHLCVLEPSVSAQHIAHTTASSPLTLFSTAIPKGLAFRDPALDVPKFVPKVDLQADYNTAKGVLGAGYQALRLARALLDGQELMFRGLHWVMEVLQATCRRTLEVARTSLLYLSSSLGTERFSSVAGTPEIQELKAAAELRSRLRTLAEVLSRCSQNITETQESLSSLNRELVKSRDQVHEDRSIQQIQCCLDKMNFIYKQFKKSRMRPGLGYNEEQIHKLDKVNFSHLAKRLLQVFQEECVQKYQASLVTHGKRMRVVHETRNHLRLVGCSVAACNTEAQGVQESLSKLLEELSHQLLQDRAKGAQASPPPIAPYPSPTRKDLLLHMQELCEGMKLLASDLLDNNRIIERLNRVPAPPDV
As to the kind of experiment: IKKε enzyme potency, time-resolved fluorescence Lanthascreen kinase assay. It is filed as biochemical. The conditions noted are these: IC50 at apparent Km for ATP (20 μM), 1 h reaction; read-out: Inhibition of IKKε. The protocol: as §1, §2, §3, §4, §5

For a further series, the target named is T3, SIK2 (Homo sapiens, UniProt Q9H0K1).
T3 construct: purchased Reaction Biology Corporation
T3 sequence (Q9H0K1 whole entry): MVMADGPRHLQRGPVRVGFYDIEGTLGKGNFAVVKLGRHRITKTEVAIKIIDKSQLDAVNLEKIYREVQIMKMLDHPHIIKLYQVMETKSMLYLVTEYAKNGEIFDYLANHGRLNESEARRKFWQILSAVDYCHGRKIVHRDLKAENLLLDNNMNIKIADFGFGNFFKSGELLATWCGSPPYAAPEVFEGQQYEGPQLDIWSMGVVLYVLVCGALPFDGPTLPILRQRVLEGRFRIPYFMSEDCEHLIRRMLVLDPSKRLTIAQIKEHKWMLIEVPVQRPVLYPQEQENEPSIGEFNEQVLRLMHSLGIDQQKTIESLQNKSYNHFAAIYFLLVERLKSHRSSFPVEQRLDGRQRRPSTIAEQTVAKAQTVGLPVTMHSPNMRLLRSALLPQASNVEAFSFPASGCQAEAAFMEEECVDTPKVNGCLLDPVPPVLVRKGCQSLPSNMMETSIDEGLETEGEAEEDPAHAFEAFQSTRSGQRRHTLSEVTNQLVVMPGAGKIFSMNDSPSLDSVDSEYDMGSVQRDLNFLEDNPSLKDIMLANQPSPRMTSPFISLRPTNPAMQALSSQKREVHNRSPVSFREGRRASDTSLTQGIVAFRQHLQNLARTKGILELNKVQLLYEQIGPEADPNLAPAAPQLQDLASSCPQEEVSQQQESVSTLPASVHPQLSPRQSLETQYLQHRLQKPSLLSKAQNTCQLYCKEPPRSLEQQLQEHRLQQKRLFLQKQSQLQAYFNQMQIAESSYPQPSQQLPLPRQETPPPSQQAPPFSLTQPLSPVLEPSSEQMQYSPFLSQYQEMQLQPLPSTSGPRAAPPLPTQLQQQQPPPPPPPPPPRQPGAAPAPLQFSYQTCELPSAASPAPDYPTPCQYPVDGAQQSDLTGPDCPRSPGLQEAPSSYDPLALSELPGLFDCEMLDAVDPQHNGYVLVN
As to the kind of experiment: SIK2 radiolabelled 33P-ATP Kinase HotSpot assay (Reaction Biology Corporation). It is filed as biochemical. The conditions noted are these: IC50 at apparent Km for ATP (30 μM), 20 μM peptide substrate; read-out: Inhibition of SIK2. As to the method:
SIK2 was measured using radiolabelled ^33P-ATP using the Kinase HotSpot℠ technology of Reaction Biology Corporation. The peptide AMARAASAALAARRR [SEQ ID No 2] at a concentration of 20 μM was used as the substrate. IC50 values were determined at the apparent Km for ATP (30 μM)

[3] abbreviates: Table 2, IV typically 0.5 mg/Kg.
Where [4] appears, read: mouse, Table 3, comparative examples, IV typically 0.5 mg/Kg.
The mark [5] stands for this setting: mouse, plasma, Table 3, comparative examples, IV typically 0.5 mg/Kg, read-out: Vd.
Setting [6] is: Table 3, comparative examples, IV typically 0.5 mg/Kg.

The structures appear in SMILES notation. Where two headings read alike, the source gives them in different places.

With `CCN1CCN(Cc2ccc(Nc3nccc(-c4cnc(N5CC[C@H](F)C5)c(C#N)c4)n3)cn2)CC1` [Ex. No. 1, 5-{2-[6-(4-Ethyl-piperazin-1-ylmethyl)-pyridin-3-ylamino]-pyrimidin-4-yl}-2-((S)-3-fluoro-pyrrolidin-1-yl)-nicotinonitrile], the “Human hepatocyte stability (μL/min/10^6 cells)” value (“Human hepatocyte stability” for short) in series [1] came to 11 μL/min/10^6 cells. For the same compound, the IC50 came to 9 nM at TBK1, 16 nM on IKKε and 7 nM at SIK2. The “Vd” value in series [2] (setting [3]) was found to be 3.3 L/kg. Further, the “t½” value in series [2] (setting [3]) was 102 min.

For the compound `CN1CCN(c2ccc(Nc3nccc(-c4cnc(N5CC[C@H](F)C5)c(C#N)c4)n3)cn2)CC1` [Comp. Ex. 3], the “Human Heps (μL/min/10^6 cells)” value in series [1] came out at 48 μL/min/10^6 cells.

In the case of `CCN1CCN(Cc2ccc(Nc3nccc(-c4cnc(N5CC[C@@H](F)C5)c(C#N)c4)n3)cn2)CC1` [Ex. No. 2, 5-{2-[6-(4-Ethyl-piperazin-1-ylmethyl)-pyridin-3-ylamino]-pyrimidin-4-yl}-2-((R)-3-fluoro-pyrrolidin-1-yl)-nicotinonitrile], the “Human hepatocyte stability” value in series [1] was found to be 8 μL/min/10^6 cells. In addition, the IC50 at TBK1 was 20 nM. Moreover, in series [2] (setting [3]), the “Vd” value turned out to be 5.6 L/kg and the “t½” value is 132 min. Also, the IC50 on IKKε was found to be 21 nM.

For `N#Cc1cc(-c2ccnc(Nc3ccnc(NC(=O)CN4CCOCC4)c3)n2)cnc1N1CC[C@H](F)C1` [Comp. Ex. 5], the “Human Heps (μL/min/10^6 cells)” value in series [1] is 6 μL/min/10^6 cells. Moreover, the half-life in series [2] (setting [4]) was 42 min. For the same compound, in series [2] (setting [5]), the Vd came out at 0.7 L/kg.

For `N#Cc1cc(-c2ccnc(Nc3ccc(CN4CCNC(=O)C4)nc3)n2)cnc1N1CC[C@H](F)C1` [Comp. Ex. 2], in series [1], the “Human Heps (μL/min/10^6 cells)” value is at most 6 μL/min/10^6 cells. In addition, in series [2] (setting [6]), the “Vd” value worked out at 0.74 L/kg and the “t½” value is 40.8 min.

As for `N#Cc1cc(-c2ccnc(Nc3ccc(NC(=O)CN4CCOCC4)nc3)n2)cnc1N1CC[C@H](F)C1` [Comp. Ex. 4], the “Human Heps (μL/min/10^6 cells)” value in series [1] is recorded as 6 μL/min/10^6 cells. Also, the “Vd” value in series [2] (setting [6]) is 0.54 L/kg. The half-life in series [2] (setting [4]) is 30 min.

On to `CN1CCN(Cc2ccc(Nc3nccc(-c4cnc(N5CC[C@H](F)C5)c(C#N)c4)n3)cn2)CC1` [Ex. No. 3, 2-((S)-3-Fluoro-pyrrolidin-1-yl)-5-{2-[6-(4-methyl-piperazin-1-ylmethyl)-pyridin-3-ylamino]-pyrimidin-4-yl}-nicotinonitrile], for which the “Human hepatocyte stability” value in series [1] amounted to 7 μL/min/10^6 cells. Besides, the IC50 on TBK1 came to 17 nM. Further, in series [2] (setting [3]), the “Vd” value came out at 4.6 L/kg and the “t½” value is 144 min. The IC50 at IKKε was 24 nM.

In the case of `N#Cc1cc(-c2ccnc(Nc3ccc(CN4CCOCC4)nc3)n2)cnc1N1CC[C@H](F)C1` [Comp. Ex. 1], in series [1], the “Human Heps (μL/min/10^6 cells)” value was 13 μL/min/10^6 cells. The half-life in series [2] (setting [4]) was 30 min. In addition, in series [2] (setting [5]), the Vd was determined as 0.3 L/kg.

The Vd is the apparent volume that relates the amount in the body to the concentration in plasma or blood. For orientation: t½ means how long it takes for the measured level to halve.
